Reference: ChEMBL document CHEMBL1201862, “PubChem BioAssay data set” (2004)
Structures can show the parent of a compound that is named as a salt. Calls of active or inactive are those of the source.

What was measured:
Bcl-2-like protein 10 = target: T1, Bcl-2-like protein 10 (Homo sapiens, UniProt Q9HD36); test: displacers of TR3 peptide from Bcl-B, primary screen, selectivity assay for Bfl-1 inhibitor project, biochemical, fluorescence polarization, FITC-TR3 peptide (AID 748);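 also: fluorescence polarization from a fluorescein-labelled TR3 peptide binding purified Bcl-B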
T1 sequence (Q9HD36 whole entry): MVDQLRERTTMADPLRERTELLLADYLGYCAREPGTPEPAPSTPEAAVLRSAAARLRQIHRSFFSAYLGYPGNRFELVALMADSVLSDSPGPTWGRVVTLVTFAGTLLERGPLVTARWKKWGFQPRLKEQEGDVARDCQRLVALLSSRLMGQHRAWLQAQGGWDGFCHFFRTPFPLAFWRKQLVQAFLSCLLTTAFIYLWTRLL

[1] = Luminescence Cell-Based Dose Confirmation to Identify Activators of 5'UTR Stem-Loop Driven Alpha-Synuclein mRNA Translation in H4 Neuroglioblastoma Cells. [Related pubchem assays: 1829 (Project Summary), 1814 (Primary HTS)]; format: functional
[2] = Luminescence Cell-Based Dose Response HTS to Identify Activators of Luciferase Translation or Activity in H4 […] Cells. [Related pubchem assays: 1829 (Project Summary), 1814 (Primary HTS)]; format: functional
[3] = Luminescence Cell-Based Dose Response to Identify Activators of 5'UTR Stem-Loop Driven Prion Protein mRNA Translation in H4-C Neuroglioblastoma Cells. [Related pubchem assays: 1829 (Project Summary), 1814 (Primary HTS)]; format: functional
[4] = Luminescence Cell-Based Dose Response to Identify Activators of Luciferase Translation or Activity in H4-C Neuroglioblastoma Cells. [Related pubchem assays: 1829 (Project Summary), 1814 (Primary HTS)]; format: functional
H4 = test: Luminescence Cell-Based Dose Response HTS to Identify Activators of 5'UTR Stem-Loop Driven Prion Protein mRNA Translation in H4 Neuroglioblastoma Cells. [Related pubchem assays: 1829 (Project Summary), 1814 (Primary HTS)]; format: functional; conditions: Homo sapiens
[5] = Luminescence Cell-Based Dose Confirmation HTS to Identify Activators of 5'UTR Stem-Loop Driven Alpha-Synuclein mRNA Translation in H4 Neuroglioblastoma Cells. [Related pubchem assays: 1829 (Project Summary), 1814 (Primary HTS)]; format: functional
[6] = Luminescence-based cell-based high throughput dose response assay to identify activators of the DAF-12 from the parasite S. stercoralis (ssDAF-12).; format: functional
[7] = target: T2, Heat shock factor protein 1 (Mus musculus, UniProt P38532); test: HSF1 potentiators in luciferase reporter cells, confirmation, cell-based, NIH3T3, luminescence, dose retest (AID 435004); format: functional;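 also: stress induced by proteasome inhibitor MG132 added 30 min after compound; luciferase reporter driven by HSF1 response element in NIH3T3 cells; actives raise luminescence as potentiators of the MG132 stress response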
T2 sequence (P38532 whole entry): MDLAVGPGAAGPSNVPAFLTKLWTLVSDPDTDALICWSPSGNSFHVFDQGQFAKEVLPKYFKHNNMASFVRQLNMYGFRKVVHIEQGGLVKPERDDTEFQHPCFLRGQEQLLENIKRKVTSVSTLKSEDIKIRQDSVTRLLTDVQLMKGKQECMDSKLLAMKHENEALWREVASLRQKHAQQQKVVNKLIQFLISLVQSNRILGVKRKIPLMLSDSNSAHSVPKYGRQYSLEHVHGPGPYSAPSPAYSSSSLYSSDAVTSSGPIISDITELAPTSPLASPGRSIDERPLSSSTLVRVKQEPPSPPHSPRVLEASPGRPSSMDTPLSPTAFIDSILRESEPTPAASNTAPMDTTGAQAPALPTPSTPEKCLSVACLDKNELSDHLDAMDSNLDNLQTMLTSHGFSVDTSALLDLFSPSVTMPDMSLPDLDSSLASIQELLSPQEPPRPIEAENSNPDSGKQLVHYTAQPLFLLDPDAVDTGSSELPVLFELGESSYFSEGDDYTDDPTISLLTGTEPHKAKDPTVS

[8] = target: T3, Oxysterols receptor LXR-beta (Homo sapiens, UniProt P55055); test: LXR agonists, Gal4 luciferase reporter, dose response, counter-screen for ssDAF-12 agonist project, cell-based, luminescence, HEK293, S. stercoralis campaign (AID 720737); format: functional; conditions: read-out: IC50 (the source's name)
T3 sequence (P55055 whole entry): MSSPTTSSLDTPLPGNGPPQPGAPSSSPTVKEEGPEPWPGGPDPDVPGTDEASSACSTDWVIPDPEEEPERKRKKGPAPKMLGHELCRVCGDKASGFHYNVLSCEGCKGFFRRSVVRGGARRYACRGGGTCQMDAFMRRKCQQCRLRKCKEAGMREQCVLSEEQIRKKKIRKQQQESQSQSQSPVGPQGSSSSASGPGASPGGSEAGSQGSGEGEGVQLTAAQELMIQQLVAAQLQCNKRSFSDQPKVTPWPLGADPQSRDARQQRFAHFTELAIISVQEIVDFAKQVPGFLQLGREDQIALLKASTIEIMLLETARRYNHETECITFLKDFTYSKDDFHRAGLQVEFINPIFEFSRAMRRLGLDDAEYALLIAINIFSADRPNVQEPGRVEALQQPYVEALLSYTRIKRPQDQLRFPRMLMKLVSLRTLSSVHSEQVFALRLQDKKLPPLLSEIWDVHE

Fatty acid synthase [9] = target: T4, Fatty acid synthase (Homo sapiens, UniProt P49327); test: FAS thioesterase domain inhibitors, dose response, biochemical, endpoint fluorescence intensity, uHTS hits (AID 624327); format: functional;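 also: fluorescence from hydrolysis of an O-methyl fluorescein acyl ester substrate by the enzyme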
INS1 = test: beta cell apoptosis inhibitors, cytokine rescue, dose response, luminescence, retest (AID 449756); format: functional, cell-based; conditions: Rattus norvegicus;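 also: cell death triggered by IL-1 beta plus TNF-alpha plus IFN-gamma mixture; protective hits raise ATP signal compared with cytokine alone wells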
Fatty acid synthase [10] = target: T4, Fatty acid synthase; test: FAS thioesterase domain inhibitors, dose response, biochemical, kinetic fluorescence intensity (AID 624326); format: functional;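 also: rate of fluorescence rise from hydrolysis of a fluorogenic O-methyl fluorescein ester substrate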
Aminopeptidase N = target: T5, Aminopeptidase N (Plasmodium falciparum FcB1/Columbia, UniProt O96935); test: P. falciparum M1AAP inhibitors, biochemical, fluorogenic H-Leu-NHMec substrate, 1536-well (AID 1445); design: species or system Plasmodium falciparum 3D7, 3D7
T5 sequence (O96935 whole entry): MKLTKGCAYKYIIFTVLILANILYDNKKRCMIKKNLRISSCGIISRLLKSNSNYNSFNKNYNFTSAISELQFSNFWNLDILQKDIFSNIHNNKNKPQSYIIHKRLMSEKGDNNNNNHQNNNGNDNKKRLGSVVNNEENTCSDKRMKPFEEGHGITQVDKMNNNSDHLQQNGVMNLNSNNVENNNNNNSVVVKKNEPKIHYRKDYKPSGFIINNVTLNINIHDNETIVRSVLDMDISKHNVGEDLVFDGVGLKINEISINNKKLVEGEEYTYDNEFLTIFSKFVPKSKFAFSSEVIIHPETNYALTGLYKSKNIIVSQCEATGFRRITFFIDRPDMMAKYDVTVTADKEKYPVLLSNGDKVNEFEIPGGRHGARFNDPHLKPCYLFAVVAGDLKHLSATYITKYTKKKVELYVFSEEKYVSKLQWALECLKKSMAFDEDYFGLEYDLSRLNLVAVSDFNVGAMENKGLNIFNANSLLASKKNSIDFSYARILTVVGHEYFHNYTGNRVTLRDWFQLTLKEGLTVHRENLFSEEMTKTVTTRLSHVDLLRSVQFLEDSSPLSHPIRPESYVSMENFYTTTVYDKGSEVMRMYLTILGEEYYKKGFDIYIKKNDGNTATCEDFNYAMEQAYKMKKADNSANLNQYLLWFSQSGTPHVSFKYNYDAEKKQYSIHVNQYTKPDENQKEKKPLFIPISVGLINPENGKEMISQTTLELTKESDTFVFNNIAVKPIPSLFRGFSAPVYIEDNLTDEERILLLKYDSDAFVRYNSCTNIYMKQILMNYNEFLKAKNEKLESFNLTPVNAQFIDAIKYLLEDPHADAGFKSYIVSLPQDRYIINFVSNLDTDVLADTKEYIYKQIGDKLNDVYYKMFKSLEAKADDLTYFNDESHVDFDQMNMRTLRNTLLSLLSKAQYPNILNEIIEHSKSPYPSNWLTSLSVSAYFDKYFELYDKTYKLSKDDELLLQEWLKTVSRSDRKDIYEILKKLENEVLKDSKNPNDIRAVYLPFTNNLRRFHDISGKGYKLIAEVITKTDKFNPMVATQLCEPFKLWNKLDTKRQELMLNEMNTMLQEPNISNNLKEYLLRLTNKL

Caspase-6 = target: T6, Caspase-6 (Homo sapiens, UniProt P55212); test: human caspase-6 inhibitors, dose response, biochemical, VEID-R110 fluorescence, cherry-pick (AID 720632)
T6 sequence (P55212 whole entry): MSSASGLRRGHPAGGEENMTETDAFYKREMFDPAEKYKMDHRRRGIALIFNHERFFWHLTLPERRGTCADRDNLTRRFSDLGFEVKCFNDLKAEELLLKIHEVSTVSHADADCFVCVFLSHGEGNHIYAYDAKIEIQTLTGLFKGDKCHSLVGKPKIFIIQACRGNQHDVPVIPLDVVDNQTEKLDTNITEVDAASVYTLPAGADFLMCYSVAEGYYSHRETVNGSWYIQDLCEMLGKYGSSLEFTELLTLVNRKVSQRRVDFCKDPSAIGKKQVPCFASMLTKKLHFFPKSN

[11] = target: T7, Sentrin-specific protease 8 (Homo sapiens, UniProt Q96LD8); format: functional
T7 sequence (Q96LD8 whole entry): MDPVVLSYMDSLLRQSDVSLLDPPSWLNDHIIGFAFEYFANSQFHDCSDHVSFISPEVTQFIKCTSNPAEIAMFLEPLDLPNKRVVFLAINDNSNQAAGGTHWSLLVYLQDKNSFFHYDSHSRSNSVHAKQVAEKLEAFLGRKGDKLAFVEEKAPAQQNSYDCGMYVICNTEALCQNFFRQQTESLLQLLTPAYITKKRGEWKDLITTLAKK

[12] = target: T7, Sentrin-specific protease 8; format: functional; remark: listed apart in the source
[13] = cytotoxicity in KRAS-transformed pancreatic duct cells, primary screen, cell-based, fluorescence, HTS (AID 431); format: functional; conditions: Homo sapiens;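 also: cell line used: HPDE-C7K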
[14] = cytotoxicity in HPDE-C7 cells, cell-based, fluorescence, HTS (AID 430); format: functional; conditions: Homo sapiens
[15] = target: T8, DNA repair protein RAD52 homolog (Homo sapiens, UniProt P43351); format: functional, biochemical
T8 sequence (P43351 whole entry): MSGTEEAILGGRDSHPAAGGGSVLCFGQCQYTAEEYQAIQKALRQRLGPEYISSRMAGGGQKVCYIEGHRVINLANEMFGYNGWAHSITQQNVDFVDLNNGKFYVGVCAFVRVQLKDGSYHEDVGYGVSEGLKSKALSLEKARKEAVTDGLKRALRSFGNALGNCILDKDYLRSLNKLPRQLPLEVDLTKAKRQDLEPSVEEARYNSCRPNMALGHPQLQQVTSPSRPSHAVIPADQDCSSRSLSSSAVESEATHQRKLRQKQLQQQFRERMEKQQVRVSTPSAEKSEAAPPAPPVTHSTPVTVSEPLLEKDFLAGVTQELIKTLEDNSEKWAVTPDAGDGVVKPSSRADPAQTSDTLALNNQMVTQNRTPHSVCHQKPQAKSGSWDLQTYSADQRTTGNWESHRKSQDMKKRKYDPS

[16] = target: FAD-linked sulfhydryl oxidase ALR (Homo sapiens, UniProt P55789); test: inhibitors of human ALR sulfhydryl oxidase, dose response, biochemical, H2O2 detection, luminescence, cherry-pick (AID 493248)
[17] = microbe, parasite or virus in culture; format: functional; conditions: Mycobacterium tuberculosis

T4 sequence (P49327 whole entry, the tested form may be a part): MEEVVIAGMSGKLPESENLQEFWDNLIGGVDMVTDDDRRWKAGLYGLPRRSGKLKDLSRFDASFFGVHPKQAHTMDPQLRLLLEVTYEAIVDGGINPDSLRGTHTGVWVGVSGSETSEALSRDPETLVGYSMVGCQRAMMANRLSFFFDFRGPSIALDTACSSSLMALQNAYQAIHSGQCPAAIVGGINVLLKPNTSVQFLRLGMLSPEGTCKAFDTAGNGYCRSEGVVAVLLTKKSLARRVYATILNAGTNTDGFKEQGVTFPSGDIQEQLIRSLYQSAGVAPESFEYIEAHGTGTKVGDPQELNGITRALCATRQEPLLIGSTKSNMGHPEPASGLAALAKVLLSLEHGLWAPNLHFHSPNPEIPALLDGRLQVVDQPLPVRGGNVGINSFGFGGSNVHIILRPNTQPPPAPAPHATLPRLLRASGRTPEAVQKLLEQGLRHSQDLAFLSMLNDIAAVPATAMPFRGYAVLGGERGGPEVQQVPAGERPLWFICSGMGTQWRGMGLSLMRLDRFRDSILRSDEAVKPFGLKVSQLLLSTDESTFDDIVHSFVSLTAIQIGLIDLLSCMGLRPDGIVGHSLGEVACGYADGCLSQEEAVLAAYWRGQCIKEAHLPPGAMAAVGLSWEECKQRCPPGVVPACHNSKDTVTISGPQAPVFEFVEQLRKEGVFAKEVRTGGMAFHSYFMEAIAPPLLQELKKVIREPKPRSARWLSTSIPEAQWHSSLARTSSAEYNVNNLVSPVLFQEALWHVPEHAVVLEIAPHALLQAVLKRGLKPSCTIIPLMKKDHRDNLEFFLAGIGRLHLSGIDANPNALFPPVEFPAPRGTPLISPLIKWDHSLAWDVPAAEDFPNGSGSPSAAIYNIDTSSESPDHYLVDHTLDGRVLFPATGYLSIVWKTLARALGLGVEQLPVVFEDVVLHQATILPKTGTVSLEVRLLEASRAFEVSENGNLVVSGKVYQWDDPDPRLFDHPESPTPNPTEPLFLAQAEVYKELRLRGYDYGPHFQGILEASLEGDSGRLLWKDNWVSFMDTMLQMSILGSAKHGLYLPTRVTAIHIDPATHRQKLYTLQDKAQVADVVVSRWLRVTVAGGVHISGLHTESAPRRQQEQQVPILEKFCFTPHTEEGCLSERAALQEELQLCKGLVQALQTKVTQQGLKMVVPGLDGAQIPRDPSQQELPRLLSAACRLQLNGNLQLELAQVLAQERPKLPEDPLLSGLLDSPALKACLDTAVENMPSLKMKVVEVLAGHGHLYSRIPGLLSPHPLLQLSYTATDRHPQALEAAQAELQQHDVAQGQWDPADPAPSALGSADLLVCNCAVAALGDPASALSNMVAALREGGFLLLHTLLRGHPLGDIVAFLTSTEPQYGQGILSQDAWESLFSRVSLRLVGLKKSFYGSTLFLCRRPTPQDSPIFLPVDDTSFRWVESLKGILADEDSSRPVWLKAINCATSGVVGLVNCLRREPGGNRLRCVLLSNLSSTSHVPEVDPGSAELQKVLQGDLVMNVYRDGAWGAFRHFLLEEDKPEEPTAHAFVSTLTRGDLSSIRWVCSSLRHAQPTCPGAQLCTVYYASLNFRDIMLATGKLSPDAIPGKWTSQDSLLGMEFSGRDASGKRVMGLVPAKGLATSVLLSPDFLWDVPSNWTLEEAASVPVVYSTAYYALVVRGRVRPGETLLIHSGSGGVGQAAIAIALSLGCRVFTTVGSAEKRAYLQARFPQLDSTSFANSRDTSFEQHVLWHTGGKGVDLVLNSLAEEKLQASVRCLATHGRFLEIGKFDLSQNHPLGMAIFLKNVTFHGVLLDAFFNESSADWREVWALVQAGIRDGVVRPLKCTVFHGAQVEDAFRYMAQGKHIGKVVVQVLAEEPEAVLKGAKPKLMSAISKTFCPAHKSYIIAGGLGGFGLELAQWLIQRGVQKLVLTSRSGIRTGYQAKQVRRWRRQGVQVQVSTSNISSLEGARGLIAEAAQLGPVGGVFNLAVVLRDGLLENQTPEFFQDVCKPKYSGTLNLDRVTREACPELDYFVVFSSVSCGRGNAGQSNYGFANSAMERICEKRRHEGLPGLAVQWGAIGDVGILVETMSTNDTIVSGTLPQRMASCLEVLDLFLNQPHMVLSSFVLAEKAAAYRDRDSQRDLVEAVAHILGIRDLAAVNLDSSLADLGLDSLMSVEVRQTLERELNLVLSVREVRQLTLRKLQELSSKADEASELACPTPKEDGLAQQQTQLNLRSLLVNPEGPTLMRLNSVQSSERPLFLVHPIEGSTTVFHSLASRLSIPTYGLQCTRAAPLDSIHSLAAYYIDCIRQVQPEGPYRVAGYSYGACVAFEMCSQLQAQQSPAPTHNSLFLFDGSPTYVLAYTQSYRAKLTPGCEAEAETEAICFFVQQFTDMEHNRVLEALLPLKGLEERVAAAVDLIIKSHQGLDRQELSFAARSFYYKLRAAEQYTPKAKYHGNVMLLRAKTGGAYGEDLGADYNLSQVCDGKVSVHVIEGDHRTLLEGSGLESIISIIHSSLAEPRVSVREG
Chain of FAD-linked sulfhydryl oxidase ALR (P55789 whole entry): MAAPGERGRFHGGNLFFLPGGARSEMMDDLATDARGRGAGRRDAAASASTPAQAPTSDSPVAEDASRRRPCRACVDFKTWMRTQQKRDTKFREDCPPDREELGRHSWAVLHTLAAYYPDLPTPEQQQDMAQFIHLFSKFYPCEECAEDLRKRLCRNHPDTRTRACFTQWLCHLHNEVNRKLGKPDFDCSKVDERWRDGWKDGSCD

Structure (SMILES): Clc1ccc2nc(CN3CCCc4ccccc43)cn2c1
- IC50 (Bcl-2-like protein 10): 72.5 µM (inactive)

Structure (SMILES): O=C(C[n+]1cc(-c2ccc(F)cc2)n2c1CCC2)c1cccs1
- EC50 [1]: 3.26 µM (active)
- EC50 [2]: 0.136 µM (inconclusive)
- EC50 [3]: 1.06 µM (active)
- EC50 [4]: > 12 µM (not active)
- EC50 (H4): 29.9 µM (inconclusive)
- EC50 [5]: < 0.1 µM (active)

Structure (SMILES): CCC(C)Sc1nc2c3ccccc3nc-2c(O)n1C (centres undefined)
- IC50 [6]: > 67.5 µM (inactive)
- EC50 [7]: > 260 µM (inactive)
- EC50 [8]: > 67.5 µM (inactive)

Structure (SMILES): O=C(c1ccc([N+](=O)[O-])cc1)N1CCOCC1
- IC50 [6]: > 67.4 µM (inactive)
- EC50 [8]: > 67.4 µM (inactive)

Structure (SMILES): O=C(CNC(=O)c1ccccc1)N/N=C/c1cc(Br)ccc1O
- IC50 (Fatty acid synthase [9]): 12.7 µM (active)
- AC50 (INS1): 3.5 µM (active)
- IC50 (Fatty acid synthase [10]): 10.2 µM (active)
- IC50 (Aminopeptidase N): 22.6 µM (active)

Structure (SMILES): Cc1[nH]cnc1CN1CCc2c(c3ccccc3n2C)C1=O [ALOSETRON HYDROCHLORIDE]
- AC50 (Caspase-6): 11.5 µM (active)
- IC50 [11]: 18.2 µM (active)
- IC50 [12]: 7.1 µM (active)

Structure (SMILES): CN(C)CCCN1c2ccccc2Sc2ccc(Cl)cc21 [CHLORPROMAZINE HYDROCHLORIDE]
- EC50 [13]: > 20 µM (not active)
- EC50 [14]: > 20 µM (not active)
- AC50 [15]: < 25.3 µM (active)
- AC50 [16]: 1.01 µM (active)
- CC50 [17]: 26 µM (active)
